Measurements as given in paper PMC6270727, “Anticholinesterase Inhibitory Activity of Quaternary Alkaloids from Tinospora crispa” (Molecules, 2014).
Where two headings read alike, the source gives them in different places.

Target: T1, acetylcholinesterase (AChE) from electric eels (type V-S) (Electrophorus electricus, UniProt O42275)
T1 construct: purchased Sigma-Aldrich (St. Louis, MO, USA) type V-S (catalogue number not given)
Test: Acetylcholinesterase (AChE) inhibitory assay, modified Ellman's colorimetric method, 96-well microplate
Type: biochemical
Details: for AChE inhibitory activity in words: microplate assay

[1] = mean ± standard deviation of two independent experiments, Tris-HCl pH 8, absorbance at 405 nm, read-out: Acetylcholinesterase inhibitory activity IC50

T1 sequence (O42275 24-633): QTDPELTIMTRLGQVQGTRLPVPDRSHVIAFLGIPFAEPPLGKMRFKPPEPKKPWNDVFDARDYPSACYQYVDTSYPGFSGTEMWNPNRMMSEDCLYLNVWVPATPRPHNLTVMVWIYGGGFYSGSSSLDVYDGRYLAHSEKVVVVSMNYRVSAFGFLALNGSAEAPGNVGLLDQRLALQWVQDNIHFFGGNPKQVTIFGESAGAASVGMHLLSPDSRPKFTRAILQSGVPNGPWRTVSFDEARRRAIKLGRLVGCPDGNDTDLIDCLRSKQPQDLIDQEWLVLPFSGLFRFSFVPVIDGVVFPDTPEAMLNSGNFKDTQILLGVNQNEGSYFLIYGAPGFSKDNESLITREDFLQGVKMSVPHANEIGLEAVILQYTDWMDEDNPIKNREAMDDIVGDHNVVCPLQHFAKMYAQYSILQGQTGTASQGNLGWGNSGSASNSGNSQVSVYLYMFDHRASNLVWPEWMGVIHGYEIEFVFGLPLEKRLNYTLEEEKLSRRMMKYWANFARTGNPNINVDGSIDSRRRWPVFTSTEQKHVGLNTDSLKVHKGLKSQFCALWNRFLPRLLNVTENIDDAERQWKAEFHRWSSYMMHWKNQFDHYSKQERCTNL

Compound	IC50 [1] [µM]	IC50 [µM]	AChE inhibitory activity in words
O=CN1CCc2cc3c(c4c2C1Cc1ccccc1-4)OCO3 (stereo not shown) [Compound 5, N-formylannonaine]	415.3 ± 2.7		
COc1cc2c(cc1O)-c1cc3ccc(OC)c(OC)c3c[n+]1CC2 [Compound 3, columbamine]		48.1 ± 1.3	most active compound
COc1ccc2c(c1O)-c1c(O)c(OC)cc3c1[C@H](C2)[N+](C)(C)CC3 [Compound 4, magnoflorine]			very weak or no inhibitory activity
COc1cc2c3c(c1OC)-c1ccccc1CC3N(C=O)CC2 (stereo not shown) [Compound 6, N-formylnornuciferine]	564.6 ± 2.1		very weak or no inhibitory activity
COc1cc(/C=C/C(=O)NCCc2ccc(O)cc2)ccc1O [Compound 7, N-trans-feruloyltyramine]			very weak or no inhibitory activity
